Results as given in ChEMBL document CHEMBL4476868, “Benzimidazole derivatives and uses thereof” (2017).
pIC50: −log10 of the molar value.

Target: Acetyl-coenzyme A synthetase, cytoplasmic (Homo sapiens, UniProt Q9NR19)
Test: Inhibition of N-terminal 6x-histidine tagged human ACSS2 expressed in insect cells assessed as reduction in pyrophosphate production using CoA and ATP incubated for 30 mins by pyrophosphatase coupled enzymatic assay

Acetyl-coenzyme A synthetase, cytoplasmic, sequence (Q9NR19 whole entry): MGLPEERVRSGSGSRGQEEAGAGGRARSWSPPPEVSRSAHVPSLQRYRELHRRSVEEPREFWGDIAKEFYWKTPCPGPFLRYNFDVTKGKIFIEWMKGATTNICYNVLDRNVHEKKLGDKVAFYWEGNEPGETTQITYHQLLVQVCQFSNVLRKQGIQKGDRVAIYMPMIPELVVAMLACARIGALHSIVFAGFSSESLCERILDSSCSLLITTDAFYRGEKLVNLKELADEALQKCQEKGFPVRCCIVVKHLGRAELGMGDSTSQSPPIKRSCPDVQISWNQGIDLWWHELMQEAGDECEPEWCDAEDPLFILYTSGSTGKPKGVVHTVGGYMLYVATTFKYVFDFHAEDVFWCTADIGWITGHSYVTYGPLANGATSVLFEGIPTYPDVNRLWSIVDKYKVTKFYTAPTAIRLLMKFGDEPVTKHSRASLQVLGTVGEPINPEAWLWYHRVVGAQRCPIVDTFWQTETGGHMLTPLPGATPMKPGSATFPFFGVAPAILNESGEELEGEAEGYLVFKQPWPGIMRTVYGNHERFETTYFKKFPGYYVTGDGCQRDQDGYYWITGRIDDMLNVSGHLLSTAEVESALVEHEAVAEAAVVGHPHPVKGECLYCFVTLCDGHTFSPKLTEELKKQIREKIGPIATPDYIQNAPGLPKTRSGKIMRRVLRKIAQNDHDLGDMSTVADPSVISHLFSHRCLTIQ

| SMILES | pIC50 |
| --- | --- |
| Cc1ccc2nc(C(O)(c3ccccc3)c3ncccc3F)n(C)c2c1 (configuration not stated) | < 6.00 |
| Cn1c(C(O)(c2ccc(F)cc2F)c2ccc(F)cc2F)nc2ccc(C(=O)NCCO)cc21 | 6.00 to 6.60 |
| CCn1c(C(O)(c2ccc(F)cc2F)c2ncccc2C)nc2ccc(CCCO)cc21 (configuration not stated) | < 6.00 |
| CCn1c(C(O)(c2ccc(C)cc2)c2ncccc2C)nc2ccc(CCCO)cc21 (configuration not stated) | 6.00 to 6.60 |
| CC(=O)OCC(O)(c1ccccc1)c1nc2ccc(C)cc2n1C (configuration not stated) | 6.00 to 6.60 |
| CCn1c(C(O)(c2ccccc2)c2ccccc2)nc2ccc(OCC(O)CO)cc21 (configuration not stated) | 6.00 to 6.60 |
| CCN1CCC[C@H](NC(=O)c2ccc3nc(C(O)(c4ccccc4)c4ccccc4)n(CC)c3c2)C1 | 6.00 to 6.60 |
| CCn1c(C(c2ccccc2)c2ccccc2)nc2ccc(C(=O)NC)cc21 | < 6.00 |
| CCn1c(C(O)(c2ccccc2)c2ccccc2)nc2cccc(C)c21 | < 6.00 |
| CC(C)NC(=O)c1cccc(C(O)(c2ccccc2)c2nc3ccc(Cl)cc3n2C)c1 (configuration not stated) | 6.00 to 6.60 |
| CCn1c(C(O)(c2ccc(F)cc2)c2ccc(F)cc2)nc2ccc(C(=O)NC[C@@H](C)O)cc21 | 6.00 to 6.60 |
| C[C@@H](O)CNC(=O)c1ccc2nc(C(O)(c3ccccc3)c3ccccc3)n(-c3ccccc3)c2c1 | 6.00 to 6.60 |
| CCn1c(C(O)(c2ccccc2)c2ccccc2)nc2ccc(OCc3ccccc3)cc21 | 6.00 to 6.60 |
| CCn1c(C(O)(c2ccc(F)cc2)c2ccc(F)cc2)nc2ccc(C(=O)NC)cc21 | 6.00 to 6.60 |
| CCn1c(C(O)(c2ccccc2)c2ccccc2)nc2ccc(C(=O)N3CCC(O)C3)cc21 (configuration not stated) | < 6.00 |
| CCn1c(C(O)(c2ccccc2)c2cccc(-c3ncco3)c2)nc2ccc(C(=O)NC)cc21 (configuration not stated) | < 6.00 |
| CCn1c(C(O)(c2ccccc2)c2ccccc2)nc2ccc(OCCNC)cc21 | < 6.00 |
| CCn1c(C(O)(c2ccccc2)c2ccccc2)nc2c(Cl)cc(C(=O)NC[C@@H](C)O)cc21 | 6.00 to 6.60 |
| Cc1ccc2nc(C(O)(c3ccccc3)c3cccc(=O)n3C)n(C)c2c1 (configuration not stated) | < 6.00 |
| CCn1c(C(O)(c2ccccc2)c2ccccc2)nc2c1cnn2C | 6.00 to 6.60 |
| CCn1c(C(O)(c2ccccc2)c2ccccc2)nc2ccc(OCCN(C)C)cc21 | < 6.00 |
| CCN1CC[C@H](NC(=O)c2ccc3nc(C(O)(c4ccccc4)c4ccccc4)n(CC)c3c2)C1 | 6.00 to 6.60 |
| C[C@@H](O)CNC(=O)c1ccc2nc(C(O)(c3ccccc3)c3ccccc3)n(CC(F)(F)F)c2c1 | 6.00 to 6.60 |
| CCn1c(C(O)(c2ccccc2)c2ccccc2)nc2ccc(COc3ccccc3)cc21 | 6.00 to 6.60 |

Next, values leading:

| pIC50 | SMILES |
| --- | --- |
| 6.60 to 7.30 | CCn1c(C(O)(c2ccccc2)c2ccc3cnn(C)c3c2)nc2ccc(C(=O)NC)cc21 (configuration not stated) |
| 6.60 to 7.30 | CCn1c(C(O)(c2ccccc2F)c2ncccc2C)nc2ccc(CCCO)cc21 (configuration not stated) |
| 6.60 to 7.30 | CCn1c(C(O)(c2ccccc2)c2ccccc2)nc2ccc(CNC(=O)CO)cc21 |
| 6.00 to 6.60 | CCn1c(C(O)(c2ccccc2)c2ccccc2)nc2ccc(C3CC3)cc21 |
| 6.60 to 7.30 | CCn1c(C(O)(c2ccccc2)c2ccccc2)nc2ccc(C(=O)NC[C@H](C)O)c(F)c21 |
| 6.00 to 6.60 | CCn1c(C(O)(c2ccccc2)c2ccccc2)nc2ccc(C(=O)NC3CCN(C)CC3)cc21 |
| 6.60 to 7.30 | C[C@@H](O)CNC(=O)c1ccc2nc(C(O)(c3ccccc3)c3ccccc3)n(CCF)c2c1 |
| 6.00 to 6.60 | CCn1c(C(O)(c2ccccc2)c2ccccc2)nc2ccc(C)c(OC)c21 |
| 6.60 to 7.30 | COc1ccc2c(c1)nc(C(O)(c1ccccc1)c1ccccc1)n2C |
| 6.00 to 6.60 | C=CCC(CO)(CO)c1ccc2nc(C(O)(c3ccccc3)c3ccccc3)n(CC)c2c1 |
| 6.60 to 7.30 | CCOC(=O)C(F)(F)c1ccc2nc(C(O)(c3ccccc3)c3ccccc3)n(CC)c2c1 |
| 6.60 to 7.30 | CCn1c(C(O)(c2ccccc2)c2ccccc2)nc2ccc(CC(CO)CO)cc21 |
| 6.60 to 7.30 | Cn1c(C(O)(c2ccccc2)c2ccccc2)nc2ccc(S(C)(=O)=O)cc21 |
| 6.60 to 7.30 | CNC(=O)c1ccc2nc(C(O)(c3ccccc3F)c3ccccc3F)n(C)c2c1 |
| 6.60 to 7.30 | CCn1c(C(O)(c2ccccc2)c2ccccc2)nc2ccc(CCC(=O)NC)cc21 |
| 6.60 to 7.30 | CCn1c(C(O)(c2ccccc2)c2ccccc2)nc2ccc(CNC(=O)COC)cc21 |
| 6.60 to 7.30 | CCn1c(C(O)(c2ccccc2)c2ccccc2)nc2ccc(C(=O)NOCCO)cc21 |

| pIC50 | SMILES |
| --- | --- |
| 6.60 to 7.30 | CCn1c(C(O)(c2ccccc2)c2ccccc2)nc2ccc(S(=O)(=O)NC[C@@H](C)O)cc21 |
| 6.60 to 7.30 | CCn1cc(-c2ccc3nc(C(O)(c4ccccc4)c4ccccc4)n(CC)c3c2)cn1 |
| 6.60 to 7.30 | CCn1c(C(O)(c2ccccc2)c2ccccc2)nc2c(F)cc(C(=O)NC[C@@H](C)O)cc21 |
| 6.60 to 7.30 | CCn1cc(-c2cc3c(cc2F)nc(C(O)(c2ccccc2)c2ccccc2)n3CC)cn1 |
| 6.60 to 7.30 | CCn1c(C(O)(c2ccccc2)c2ccccc2)nc2ccc(C(=O)NCC3CCNCC3)cc21 |
| 6.60 to 7.30 | CCn1c(C(O)(c2ccccc2)c2ccccc2)nc2cc(OCCO)ncc21 |
| 6.60 to 7.30 | CN1C[C@@H](NC(=O)c2ccc3nc(C(O)(c4ccccc4)c4ccccc4)n(C)c3c2)CCC1=O |
| 6.60 to 7.30 | CCn1c(C(O)(c2ccccc2)c2ccccc2)nc2ccc(C(=O)NCC(F)(F)C(N)=O)cc21 |
| 6.60 to 7.30 | CCn1c(C(O)(c2ccccc2)c2ccccc2)nc2ccc(N)cc21 |
| 6.60 to 7.30 | CCn1c(C(O)(c2ccccc2)c2ccccc2)nc2ccc(C(=O)N[C@@H]3CCC[C@@H](O)C3)cc21 |
| 6.60 to 7.30 | CCn1c(C(O)(c2ccccc2)c2ccccc2O)nc2ccc(C(=O)NC[C@@H](C)O)cc21 (some centres not stated) |
| 6.60 to 7.30 | CCn1c(C(O)(c2ccccc2)c2ccccc2)nc2ccc(NC(=O)OC(C)(C)C)cc21 |
| 6.60 to 7.30 | Cn1c(C(O)(c2ccccc2F)c2ccccc2F)nc2ccc(C(=O)NCCO)cc21 |
| 6.60 to 7.30 | CCn1c(C(O)(c2ccccc2)c2ccccc2)nc2ccc(C(OC(C)=O)C(F)(F)COC(C)=O)cc21 (configuration not stated) |
| 6.60 to 7.30 | CCS(=O)(=O)c1ccc2nc(C(O)(c3ccccc3)c3ccccc3)n(C)c2c1 |
| 6.60 to 7.30 | Cn1ccc(NC(=O)c2ccc3nc(C(O)(c4ccccc4)c4ccccc4)n(CCO)c3c2)n1 |
